# Test results taken from the NIST ThermoML archive (doi:10.1021/acs.jced.6b00429).
# ± gives the expanded uncertainty stated by the source.
# Settings: Liquid, Ebulliometric method (Recirculating still)
Compound,vapor or sublimation pressure (394.71 K) [kPa],vapor or sublimation pressure (400.93 K) [kPa],vapor or sublimation pressure (406.16 K) [kPa],vapor or sublimation pressure (365.01 K) [kPa],vapor or sublimation pressure (370.79 K) [kPa],vapor or sublimation pressure (375.66 K) [kPa]
"OCC(F)(F)C(F)(F)C(F)(F)C(F)F [2,2,3,3,4,4,5,5-octafluoro-1-pentanol]",53.3 ± 0.5,66.7 ± 0.5,80 ± 0.6,,,
"OCC(F)(F)C(F)F [2,2,3,3-tetrafluoro-1-propanol]",,,,53.3 ± 0.5,66.7 ± 0.5,80 ± 0.6
